What was measured:
PC12 cells [1] = experiment: Determination of neurite outgrowth rate in PC12 cells (image count); type: cell-based; details: NGF added section (100 ng/mL), 96 hours
Description: PSG-1 belongs to an immunoglobulin super family which includes some having the function of promoting neurogenesis. Then, the influence of 1,5-AG upon neuritogenesis was investigated. This was evaluated in a test system using PC12 cells which are generally used for the evaluation of neuritogenesis.
PC12 cells (Lot No. 48, Lot No. 51) (RIKEN cell bank, material 1)
DMEM medium prepared by adding 0.1% of FBS, 0.1% of HS, 1 ng/mL NGF and 1% of penicillin-streptomycin
PC12 cells were initiated in a T-75 flask by using a growth medium to be cultured in a CO2 incubator (5% CO2, 37° C., moistening). Medium exchange was carried out every 2 days, the cells were collected when 80% confluence was reached, and cells having a passage number of 2 were used in this test. Stated more specifically, after the cells were washed with D-PBS (−), the cells were separated by using 0.05% trypsin, and a growth medium was added to neutralize trypsin. Then, the supernatant was removed by centrifugation (180 g, 5 minutes), a growth medium was added to stir the cells, the number of the cells was counted by using a corpuscle calculating board, and a growth medium was used to achieve a target concentration (2.0×10^3 cells/100 μL).
(§1) A test was carried out at five concentrations (1.6, 8, 40, 200 and 1,000 μg/mL) of 1,5-AG. Stated more specifically, a 1,5-AG aqueous solution having a concentration of 100 mg/mL was diluted with water to prepare 100 times-concentrated solutions having concentrations of 0.16, 0.8, 4, 20 and 100 mg/mL. These 100 times-concentrated solutions were each added to a test medium in a ratio of 1/100 to achieve final concentrations of 1.6, 8, 40, 200 and 1,000 μg/mL and sterilized with a filter to be used in the test. As a negative control, water was added to a medium in a ratio of 1/100 and sterilized with a filter to be used in the test. As a positive control, a test medium containing a 100 ng/mL nerve growth factor (NGF) was used.
(§2) A growth medium was used to adjust the cells to a concentration of 2.0×10^3 cells/100 μL/well, and the cells were scattered in a collagen-coated 96-well plate to be cultured in a CO2 incubator (5% CO2, 37° C., moistening) for 24 hours. After culture, the medium was replaced by a sample-containing test medium (100 μL), and the cells were cultured in a CO2 incubator for 96 hours. After the end of culture, an image of the cells in each well was taken with a phase difference microscope and used for the measurement of nuetrite outgrowth rate, and nuclei and cytoplasms were fluorescent dyed by using a neurite outgrowth staining kit to measure the number of living cells and the amount of neurite outgrowth. These procedures were carried out five times each.
Based on the image taken above, the total number of cells, the number of cells showing the same or higher neurite outgrowth than the cell length and the number of cells showing neurites having a length 2 times or more than the cell length were measured from the image of the cells. The percentage (%) of cells showing neurite outgrowth was calculated from the measurement values.

PC12 cells [2] = experiment: Fluorescence determination of number of living cells and amount of neurite outgrowth (neurite outgrowth staining kit); type: cell-based; details: NGF added section (100 ng/mL)
Description: as §1, §2
After the end of culture, the number of living cells and the amount of neurite outgrowth were determined by using a neurite outgrowth staining kit. Stated more specifically, after the medium was removed, 100 μL of a staining solution (prepared by diluting Cell Viability Indicator and Cell Membrane Stain attached to the kit with calcium magnesium-containing PBS 1,000 times) was added to each well to incubate the cells at 37° C. for 20 minutes. After incubation, the staining solution was removed, 100 μL of a background suppression solution (prepared by diluting the background suppression dye attached to the kit with calcium magnesium-containing PBS 100 times) was added to each well so as to measure fluorescence intensity with a micro plate reader (measurement of the number of living cells: excitation wavelength of 495 nm, fluorescence wavelength of 515 nm, measurement of the amount of neurite outgrowth: excitation wavelength of 555 nm, fluorescent wavelength of 565 nm).

NGF: positive control: a test medium containing a 100 ng/mL nerve growth factor (NGF) [reference compound]
cells showing a neurite outgrowth rate of 1 time or more (PC12 cells [1]): 68.8% | cells showing a neurite outgrowth rate of 2 times or more (PC12 cells [1]): 54.5% | amount of neurite outgrowth per cell as compared with the non-added section (PC12 cells [2]): 183.1%

From patent US20170223976A1, “MODIFIED MILK POWDER CONTAINING 1,5-ANHYDRO-D-GLUCITOL” (NIHON STARCH CO., LTD., priority 2015, published 2017)
